In brackets after ≈: the same amount, converted by molar mass. Like-named read-outs stand apart in the source and are kept apart here. Ends that are not written are not given here. A value given as a limit tells only on which side of the number the result lay.

For one series, the system named is P. aeruginosa (CF). The series is described as follows: microbe, parasite or virus in culture. The following applies: Pseudomonas aeruginosa, cation adjusted MHB, 18–24 h. On the procedure: (§1) Peptides dissolved in sterile distilled water and comparator antibiotics dissolved in the appropriate solvents[38] were added to sterile U-bottom polypropylene 96-well microplates at desired concentrations.

For a further series, the system named is S. aureus. The series is described as follows: microbe, parasite or virus in culture. On the procedure:
as §1

A further series relates to HUVEC and HepG2 cells. The following applies: HUVEC and HepG2 cells (cell line not given). On the procedure: Cytotoxic activity of the identified peptides was determined using HUVEC and HEPG2 cells as described previously.[41],[42] […] Significant responses were defined when observed cell growth was ≤50% and tube length was ≤70% using the proliferation and tube formation assays respectively. Permeabilization of eukaryotic membrane by Lynronne-1, Lynronne-2 and Lynronne-3 was also investigated using HepG2 cells as described previously.[43]

The subject of the next series is Ent. faecalis JH2-2. The series is described as follows: microbe, parasite or virus in culture. Here is the method:
as §1

Series [1] concerns List. monocytogenes NCTC 11994. The series is described as follows: microbe, parasite or virus in culture. Here is the method:
as §1

A further series relates to Sal. typhimurium SL1344. Briefly: microbe, parasite or virus in culture. On the procedure:
as §1

The subject of series [2] is E. coli K12. The series is described as follows: MIC, broth microdilution. The class given is cell-based, Escherichia coli. The following applies: strain K12, cation adjusted MHB, 18–24 h. Here is the method:
as §1

The test system of series [3] is S. aureus MRSA ATCC 33591. The series is described as follows: Neutropenic mouse MRSA thigh infection model. The class given is in vivo, Staphylococcus aureus. The following applies: neutropenic male ICR mice; 10 mg/kg IV administered twice; significant (P < 0.001). Here is the method:
In the thigh infection model, using neutropenic mice,[25] groups of five male ICR mice weighing 22 ± 2 g were inoculated intramuscularly (IM) with S. aureus MRSA, ATCC 33591 (1.57 × 10^5 CFU/mouse (0.1 ml/thigh)) in the right thigh. Lynronne-1, Lynronne-2 and Lynronne-3 at 10 mg/kg were intravenously (IV) administered once 2 h post infection or twice 2 and 8 h post-infection. The reference substance, vancomycin, was also intravenously injected 2 and 8 h post-infection at 10 and 30 mg/kg. Test animals were sacrificed 26 h after inoculation and the infected thighs were excised and the bacterial burden (CFU/gram) was determined.

The test system of a further series is C. jejuni. The series is described as follows: microbe, parasite or virus in culture. On the procedure: as §1
A further series concerns C. coli. Here is the method: as §1
For the next series, the system named is K. pneumoniae. Briefly: microbe, parasite or virus in culture. Here is the method: as §1
In series [4] the test system is E. coli K12. Briefly: Time kill kinetics. The class given is cell-based, Escherichia coli. Conditions: at 10 min. Here is the method:
Assessment of the bactericidal activity of peptides and comparator antibiotics was performed as previously described[39] using exponential-phase cultures of pathogens grown in MHB ([…]). Peptides were added at concentrations 3 times their MIC values. Experiments were performed in quadruplicates, and CFU/ml was calculated at different time points after over overnight incubation.

In series [5] the test system is E. coli K12. Briefly: SPOT peptide library screen (resazurin fluorescence). The class given is cell-based, Escherichia coli. Further details: unit not given here. Conditions: 75% reduction of fluorescence vs untreated controls; active IC75≤0.25, semi-active 0.25<IC75≤0.50, inactive IC75>0.5. The text has this:
(§2) The peptides in the created peptide library were synthesized based on the SPOT technique and pure peptides (≥95% purity) were synthesized on resin using solid phase Fmoc peptide chemistry.[16] The 135 peptides in the peptide library were screened for antimicrobial activity using both luminescent (Pseudomonas aeruginosa strain H1001)[34] and non-luminescent (epidemic methicillin resistant S. aureus EMRSA-15, Sal. typhimurium and E. coli K12) bacterial strains. Activity against non-luminescent bacteria strains was assessed by fluorescence readings (excitation/emission spectra of 560/590 nm) after the addition of resazurin dye (100 µm final concentration). The results from the screen were analysed using the MATLAB extension Gait-CAD as previously described.[35] Concentration values with a 75% reduction of luminescence or fluorescence (IC75) in relation to untreated controls were computed.

For a further series, the system named is EMRSA-15. The series is described as above. The class given is cell-based, Staphylococcus aureus. Further details: unit not given here. The following applies: 75% reduction of fluorescence vs untreated controls; active IC75≤0.25, semi-active 0.25<IC75≤0.50, inactive IC75>0.5.
From the text: as §2

The subject of a further series is Sal. typhimurium. The description is as above. The class given is cell-based, Salmonella enterica serovar Typhimurium. Details: unit not given here. Conditions: 75% reduction of fluorescence vs untreated controls; active IC75≤0.25, semi-active 0.25<IC75≤0.50, inactive IC75>0.5.
From the text: as §2

The test system of the next series is P. aeruginosa H1001. Briefly: SPOT peptide library screen (luminescence). The class given is cell-based, Pseudomonas aeruginosa. Details: unit not given here. Conditions: 75% reduction of luminescence vs untreated controls; active IC75≤0.25, semi-active 0.25<IC75≤0.50, inactive IC75>0.5.
From the text: as §2

Where [6] appears, read: strain RN4220, Sensitive, cation adjusted MHB, 18–24 h.

For `C[C@H]1COc2c(N3CCN(C)CC3)c(F)cc3c(=O)c(C(=O)O)cn1c23` [Lev, Levofloxacin, reference compound], the values for the MIC against P. aeruginosa (CF) (strain AMT0060), in the series on P. aeruginosa (CF) (strain C3719) and in the series on P. aeruginosa (CF) (strain LESB58) were 0.06 µg/mL (≈ 0.166 µM), below 0.03 µg/mL and 0.06 µg/mL (≈ 0.166 µM), respectively.

As to `C/C(=C\C(=O)OCCCCCCCCC(=O)O)C[C@@H]1OC[C@H](C[C@@H]2O[C@H]2[C@@H](C)[C@H](C)O)[C@@H](O)[C@H]1O` [Mup, Mupirocin, reference compound], the MIC against S. aureus (Staphylococcus aureus, BAA1717|MRSA|USA300, strain USA300 BAA-1717, MRSA, cation adjusted MHB, 18–24 h) is 0.12 µg/mL (≈ 0.24 µM).

For the compound `CN[C@@H]1C[C@H]2O[C@@](C)([C@@H]1OC)n1c3ccccc3c3c4c(c5c6ccccc6n2c5c31)C(=O)NC4` [Staurosporine, reference compound], the “50% lethal concentration (LC50)” value in the series on HUVEC and HepG2 cells stood at 0.014 µg/mL.

Turning to `CN[C@H](CC(C)C)C(=O)N[C@H]1C(=O)N[C@@H](CC(N)=O)C(=O)N[C@H]2C(=O)N[C@H]3C(=O)N[C@H](C(=O)N[C@H](C(=O)O)c4cc(O)cc(O)c4-c4cc3ccc4O)[C@H](O)c3ccc(c(Cl)c3)Oc3cc2cc(c3O[C@@H]2O[C@H](CO)[C@@H](O)[C@H](O)[C@H]2O[C@H]2C[C@](C)(N)[C@H](O)[C@H](C)O2)Oc2ccc(cc2Cl)[C@H]1O` [Van, Vancomycin, reference compound], the MIC was found to be 64 µg/mL (≈ 44.2 µM) with Ent. faecalis JH2-2 (Enterococcus faecalis, JH22); 64 µg/mL (≈ 44.2 µM) in [1] (Listeria monocytogenes, NCTC11994); 1 µg/mL (≈ 0.69 µM) in the series with S. aureus (Staphylococcus aureus); 2 µg/mL (≈ 1.38 µM) with S. aureus (Staphylococcus aureus, ATCC33591 / MRSA); 2 µg/mL (≈ 1.38 µM) in the series with S. aureus (Staphylococcus aureus, BAA1717 / MRSA / USA300); 2 µg/mL (≈ 1.38 µM) in the series with S. aureus (Staphylococcus aureus, MRSA). Moreover, the MIC was found to be 256 µg/mL (≈ 177 µM) against Sal. typhimurium SL1344 (Salmonella enterica, TYPHIMURIUM) and 128 µg/mL (≈ 88.3 µM) in the series on E. coli K12 [2] (Escherichia coli, read-out: MIC). In addition, the “Reduction in colony counts” value in series [3] is below 2 log.

Regarding AWRWKAFRNCWRVRSSSL-NH2 [P8], the MIC against C. jejuni was above 128 µg/mL; in the series on Ent. faecalis JH2-2, 64 µg/mL; in series [1] (NCTC 11994), 64 µg/mL; in the series with S. aureus (setting [6]), 64 µg/mL; in the series with Sal. typhimurium SL1344 it was 32 µg/mL; in the series on C. coli it was above 128 µg/mL. The same compound displayed an MIC against E. coli K12 [2] of 64 µg/mL.

For the compound GTAWRWHYRARS-NH2 [P15a], the MIC was 128 µg/mL in the series with C. jejuni, above 128 µg/mL against K. pneumoniae, above 128 µg/mL against S. aureus and 128 µg/mL with C. coli.

For KFVRLKIYCRDKNKGRGISF-NH2 [P15s], the MIC against C. jejuni came out at 128 µg/mL; with Ent. faecalis JH2-2, 128 µg/mL; in [1] (NCTC 11994) it was 128 µg/mL; against Sal. typhimurium SL1344, 128 µg/mL; in the series on C. coli, 128 µg/mL; against E. coli K12 [2] it was 64 µg/mL.

Regarding Polymyxin B, in the series on E. coli K12 [4], the “Bactericidal activity (reduction in viable count)” value is above 4 log10 CFU/ml.

On to QVRWWGRYWRRKWATCR-NH2 [P12], for which the MIC against C. jejuni was above 128 µg/mL; against Ent. faecalis JH2-2, 256 µg/mL; in [1] (NCTC 11994) it was 128 µg/mL; in the series on Sal. typhimurium SL1344 it was 256 µg/mL; in the series with C. coli it was above 128 µg/mL.

For RSITRPVLVRRRWRVRPVF-NH2 [P10], the MIC was above 128 µg/mL in the series with C. jejuni; 512 µg/mL in the series on Ent. faecalis JH2-2; above 128 µg/mL with K. pneumoniae; 512 µg/mL in [1] (NCTC 11994); above 128 µg/mL against S. aureus; 256 µg/mL in the series with S. aureus (setting [6]). Further, the figures for the MIC with Sal. typhimurium SL1344, in the series on C. coli and in the series on E. coli K12 [2] were 64 µg/mL, above 128 µg/mL and 256 µg/mL, respectively.

“SIKILKIYFIQGKRHWSF-NH2 (C-terminus assumed) [P11]”: the MIC is above 128 µg/mL with C. jejuni; 256 µg/mL in the series with Ent. faecalis JH2-2; 256 µg/mL in series [1] (NCTC 11994); 512 µg/mL in the series on Sal. typhimurium SL1344; above 128 µg/mL in the series with C. coli.

For TMSLRFWRWKVR-NH2 [P5], the MIC against C. jejuni amounted to 128 µg/mL; with Ent. faecalis JH2-2 it was 64 µg/mL; in [1] (NCTC 11994) it was 64 µg/mL; with S. aureus (setting [6]) it was 64 µg/mL; against Sal. typhimurium SL1344, 64 µg/mL; with C. coli, 128 µg/mL. The compound also showed an MIC with E. coli K12 [2] of 64 µg/mL.

As to TTAPCKCWIGLRRCFK [P18], the “IC75 values indicating activity classes, E. coli” value with E. coli K12 [5] is listed as 0.36. The “IC75 values indicating activity classes, EMRSA-15” value with EMRSA-15 came out at 3.77. The “IC75 values indicating activity classes, Sal. typhimurium” value with Sal. typhimurium came to 1.99. Also, in the series on P. aeruginosa H1001, the “IC75 values indicating activity classes, P. aeruginosa H1001” value is recorded as 1.55.

VLHTGYRKFLHRSKRFFHLR-NH2 [P4]: the MIC in the series with C. jejuni was above 128 µg/mL; against Ent. faecalis JH2-2, 64 µg/mL; in series [1] (NCTC 11994), 64 µg/mL; with Sal. typhimurium SL1344, 32 µg/mL; with C. coli, above 128 µg/mL; in the series on E. coli K12 [2], 64 µg/mL.
